Common to all, as to assay: Cytokine profile of CD4 T cell clone stimulated with cognate peptide (intracellular staining)
What all share (assay type): cell-based, human
What all share (conditions): cognate peptide 10 μM, 5 hours

In assay [1] the test system is CD4 T cell clone 9C12-DQβ*0202. As to the method: (§1) Lymphocytes were stimulated for 5 hours in the presence of brefeldin A (10 μg/mL) either with peptide alone (10 μM) in an autopresentation assay or with B-EBV or HLA-class II expressing melanoma cells pulsed 2 hours with the cognate peptide, at a ratio 1:2. In some experiments, blocking mAb against HLA-DP (clone B7.21 from Dr Charron, UMR940, Paris), HLA-DQ (clone SPVL3, Beckman Coulter) or HLA-DR (clone L243, BD Biosciences) were added at a concentration of 12.5 μg/ml. Cells were then stained with APC-conjugated anti-CD4 mAb, fixed with 4% paraformaldehyde, labeled with PE-conjugated anti-cytokine mAb and analyzed by flow cytometry.
(§2) We also documented the T helper profile of each T cell clone, by stimulating the CD4 T cell clones with the cognate peptide, and analyzing cytokine production. All the clones expressed Th1 cytokines (TNFα, IFNγ, IL2 and GM-CSF). On the contrary, these clones differ in their expression of Th2 cytokines. Indeed, the two DQ2 restricted T cell clones (9C12 and 4E2) and the DR1 restricted one (5F9) also strongly express two Th2 cytokines (IL4, and IL13), whereas the DR11-restricted T cell clone only weakly expressed IL4 (Table IV). None of the CD4 T cell expresses IL10 or IL5 at a significant level.

The subject of assay [2] is CD4 T cell clone 5F9-DRβ1*0101. The method, then: as §1, §2
For assay [3], the system named is CD4 T cell clone 1A5-DRβ1*1101. As to the method:
as §1, §2

Results on two sequences are retold here after patent US9475841B2, “Melanoma antigen peptide and uses thereof” (INSERM (INSTITUT NATIONAL DE LA SANTE ET DE LA RECHERCHE …, priority 2012, dated 2016).

Take “SCVGYPDEATSREQFLPSEG (SCVGYPDEATSREQFLPSEC) [MELOE-12-21]”: in assay [1], the “Cytokine profile: GM-CSF” value was “GM-CSF^high”, the “Cytokine profile: IFN” value is reported as “IFN^high”, the “Cytokine profile: IL2” value is listed as “IL2^high” and the “Cytokine profile: IL4” value is recorded as “IL4^high”. In assay [1], the “Cytokine profile: IL5” value is recorded as “IL5^high”, the “Cytokine profile: IL10” value was “IL10^neg”, the “Cytokine profile: IL13” value was “IL13^high” and the “Cytokine profile: TNF” value was “TNF^high”.

In the case of TSREQFLPSEGAACPPWHPS [MELOE-111-30], in assay [2], the “Cytokine profile: GM-CSF” value was “GM-CSF^high”, the “Cytokine profile: IFN” value is on record as “IFN^high”, the “Cytokine profile: IL2” value is “IL2^low” and the “Cytokine profile: IL4” value is “IL4^high”. In assay [2], the “Cytokine profile: IL5” value is on record as “IL5^neg”, the “Cytokine profile: IL10” value is given as “IL10^neg”, the “Cytokine profile: IL13” value is recorded as “IL13^high” and the “Cytokine profile: TNF” value was “TNF^high”. Also, in assay [3], the “Cytokine profile: GM-CSF” value was “GM-CSF^high”, the “Cytokine profile: IFN” value is on record as “IFN^high”, the “Cytokine profile: IL2” value was “IL2^high” and the “Cytokine profile: IL4” value is “IL4^low”. For the same sequence, in assay [3], the “Cytokine profile: IL5” value is reported as “IL5^neg”, the “Cytokine profile: IL10” value is listed as “IL10^neg”, the “Cytokine profile: IL13” value is listed as “IL13^neg” and the “Cytokine profile: TNF” value is listed as “TNF^high”.
